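Step 1: Grow cells in 96-well plates. Step 2: Expose to compound for 48 hours at 5 concentrations. Step 3: Interpolate endpoints linearly; if unreached, use highest concentration. GI50: concentration for 50% inhibition of growth. TGI is the concentration that stops growth completely.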
Legend:
Assay in all cases: NCI-60 cell line screen, 48 h
ACHN renal = test system: ACHN renal
SN12C renal = test system: SN12C renal
NCI-H522 lung = test system: NCI-H522 lung
SK-MEL-5 melanoma = test system: SK-MEL-5 melanoma
SF-268 CNS = test system: SF-268 CNS
OVCAR-5 ovarian = test system: OVCAR-5 ovarian
SK-MEL-2 melanoma = test system: SK-MEL-2 melanoma
HCT-15 colon = test system: HCT-15 colon
KM12 colon = test system: KM12 colon
COLO 205 colon = test system: COLO 205 colon

Structure (SMILES)	GI50 (ACHN renal)	TGI (ACHN renal)	GI50 (SN12C renal)	TGI (SN12C renal)	GI50 (NCI-H522 lung)	TGI (NCI-H522 lung)	GI50 (SK-MEL-5 melanoma)	TGI (SK-MEL-5 melanoma)	GI50 (SF-268 CNS)	TGI (SF-268 CNS)	GI50 (OVCAR-5 ovarian)	TGI (OVCAR-5 ovarian)	GI50 (SK-MEL-2 melanoma)	TGI (SK-MEL-2 melanoma)	GI50 (HCT-15 colon)	TGI (HCT-15 colon)	GI50 (KM12 colon)	TGI (KM12 colon)	GI50 (COLO 205 colon)	TGI (COLO 205 colon)
Nc1ccccc1NC(=O)c1ccc(CCCC(=O)Nc2ccc(C3CC3N)cc2)cc1 (configuration not stated)	4.3 µM	33.5 µM	3.62 µM	> 100 µM	0.673 µM	5.12 µM	0.716 µM	2.21 µM	1.83 µM	23 µM	0.925 µM	37.6 µM	1.55 µM	7.26 µM	18.8 µM	> 100 µM	3.63 µM	> 100 µM	0.765 µM	2.89 µM
CCOC(=O)C(=O)Nc1ccc(Cl)cc1C	–	> 100 µM	–	> 100 µM	–	> 100 µM	–	> 100 µM	–	> 100 µM	–	> 100 µM	–	> 100 µM	–	> 100 µM	–	> 100 µM	–	> 100 µM
O=C(O)c1cc2ccccc2oc1=O	–	> 100 µM	–	> 100 µM	–	> 100 µM	–	> 100 µM	–	> 100 µM	–	> 100 µM	–	> 100 µM	–	> 100 µM	–	> 100 µM	–	> 100 µM
S=C(Nc1ccc(Cl)cc1)Nc1ccc(-c2nc3ccccc3o2)cc1	17.3 µM	35.8 µM	13.7 µM	28.8 µM	11 µM	26.7 µM	14 µM	32.2 µM	16.5 µM	76.7 µM	20.4 µM	52.9 µM	24.2 µM	51.2 µM	10.9 µM	25.7 µM	15.8 µM	42.9 µM	19.9 µM	> 100 µM
CCN1C2=NCCN2S(=O)(=O)c2ccccc21	–	> 100 µM	–	> 100 µM	–	> 100 µM	–	> 100 µM	–	> 100 µM	–	> 100 µM	–	> 100 µM	–	> 100 µM	–	> 100 µM	–	> 100 µM
CC(=O)N1c2ccccc2NC2=C(C(=O)N(Cc3ccccc3)C2(C)C)C1c1ccco1 (configuration not stated)	1.35 µM	> 25 µM	0.589 µM	> 25 µM	0.871 µM	> 25 µM	0.871 µM	> 25 µM	1.28 µM	> 25 µM	0.44 µM	> 25 µM	1.03 µM	> 25 µM	1.2 µM	> 25 µM	0.579 µM	> 16.4 µM	0.742 µM	> 25 µM
O=C(O)CCC/C=C\C[C@H]1C=CC(=O)/C1=C/C[C@@H](O)CCc1cccc(C(F)(F)F)c1	1.65 µM	3.22 µM	3.41 µM	26.8 µM	1.35 µM	3.8 µM	1.71 µM	3.14 µM	3.22 µM	16.5 µM	4.15 µM	11.8 µM	2.65 µM	7.98 µM	1.79 µM	4.88 µM	1.89 µM	4.62 µM	2.26 µM	5.49 µM
COC(=O)NC1(NC(=O)OC)NC(=O)c2cc(OC)c(OC)c(OC)c2N1	–	> 100 µM	–	> 100 µM	–	41.5 µM	–	> 100 µM	–	> 100 µM	–	> 100 µM	–	8.85 µM	–	> 100 µM	–	> 100 µM	–	> 100 µM
Cc1ccc(NC(=O)C(=O)CC(=O)C2CCOC2=O)c(C)c1 (configuration not stated)	–	> 100 µM	–	> 100 µM	–	> 100 µM	–	> 100 µM	–	> 100 µM	–	> 100 µM	–	> 100 µM	–	> 100 µM	–	> 100 µM	–	> 100 µM
COc1ccc(Cc2cc3c(cc2OCC(=O)O)OCO3)cc1	–	> 100 µM	–	> 100 µM	–	> 100 µM	–	> 100 µM	–	> 100 µM	–	> 100 µM	–	> 100 µM	–	–	–	> 100 µM	–	> 100 µM
Fc1ccc(-c2ncn(C3CCNCC3)c2-c2ccnc(Oc3ccc(F)c(F)c3)n2)cc1	9.9 µM	> 25 µM	6.24 µM	> 14.6 µM	5.52 µM	10.5 µM	3.55 µM	6.83 µM	12 µM	> 25 µM	7.78 µM	> 25 µM	6.84 µM	14.5 µM	5.64 µM	15.6 µM	6.71 µM	> 16.2 µM	4.55 µM	8.47 µM
COc1ccc(N/N=C(\CCN(C)C)c2ccccc2)cc1	–	4.84 µM	–	17.2 µM	–	30 µM	–	21.2 µM	–	> 100 µM	–	91.7 µM	–	18.9 µM	–	4.57 µM	–	18 µM	–	7.84 µM
Clc1ccc(C2=Nn3c(nnc3-c3cc(Cl)cc(Cl)c3Cl)SC2)cc1	15.5 µM	45.5 µM	75 µM	> 100 µM	12.7 µM	46.2 µM	23.5 µM	> 100 µM	16.5 µM	> 100 µM	36.7 µM	> 100 µM	41.7 µM	> 100 µM	22.3 µM	> 100 µM	9.15 µM	> 100 µM	52.8 µM	> 100 µM
COc1cc2c3c(n(CCCNCCCNCCCNCCCN)c(=O)c2cc1OC)-c1cc2c(cc1C3=O)OCO2	3.1 µM	12 µM	1.56 µM	9.35 µM	3.61 µM	> 100 µM	–	–	1.7 µM	4.33 µM	1.76 µM	5.63 µM	4.78 µM	89 µM	6.77 µM	29 µM	1.73 µM	4.03 µM	1.49 µM	> 100 µM
O=C(Cc1nc2ccccc2s1)C(=O)Nc1cccc(Cl)c1	–	> 100 µM	–	> 100 µM	–	> 100 µM	–	> 100 µM	–	> 100 µM	–	> 100 µM	–	> 100 µM	–	> 100 µM	–	> 100 µM	–	> 100 µM
O=C(Cc1csc(-c2nc(CC(=O)NNc3ccccc3)cs2)n1)NNc1ccccc1	–	> 100 µM	–	> 100 µM	–	43.5 µM	–	> 100 µM	–	> 100 µM	–	> 100 µM	–	> 100 µM	–	> 100 µM	–	> 100 µM	–	64 µM
CC(=O)O[C@@H]1[C@@H](O)C2=C3[C@]4(C)[C@@H]1C(C)(C)C(=O)C[C@@H]4[C@]3(O)[C@H](OC(C)=O)[C@@]1(C[C@@H]1C)C2=O	–	43.4 µM	–	37.1 µM	–	19.2 µM	–	48.8 µM	–	81.7 µM	–	54.9 µM	–	68.5 µM	–	31.5 µM	–	30.8 µM	–	34.2 µM

Source: PubChem BioAssay (NCI)
